ChEMBL document CHEMBL3991601, “The target landscape of clinical kinase drugs” (Science, 2017)
The source made the active and inactive calls. Rule as the data show it, for most assays here: actives have a measured Kd and inactives only a lower limit.

Experiments:
[1] = molecular target: T1, Phenylalanine--tRNA ligase beta subunit (Homo sapiens, UniProt Q9NSD9)
T1 sequence (Q9NSD9 whole entry): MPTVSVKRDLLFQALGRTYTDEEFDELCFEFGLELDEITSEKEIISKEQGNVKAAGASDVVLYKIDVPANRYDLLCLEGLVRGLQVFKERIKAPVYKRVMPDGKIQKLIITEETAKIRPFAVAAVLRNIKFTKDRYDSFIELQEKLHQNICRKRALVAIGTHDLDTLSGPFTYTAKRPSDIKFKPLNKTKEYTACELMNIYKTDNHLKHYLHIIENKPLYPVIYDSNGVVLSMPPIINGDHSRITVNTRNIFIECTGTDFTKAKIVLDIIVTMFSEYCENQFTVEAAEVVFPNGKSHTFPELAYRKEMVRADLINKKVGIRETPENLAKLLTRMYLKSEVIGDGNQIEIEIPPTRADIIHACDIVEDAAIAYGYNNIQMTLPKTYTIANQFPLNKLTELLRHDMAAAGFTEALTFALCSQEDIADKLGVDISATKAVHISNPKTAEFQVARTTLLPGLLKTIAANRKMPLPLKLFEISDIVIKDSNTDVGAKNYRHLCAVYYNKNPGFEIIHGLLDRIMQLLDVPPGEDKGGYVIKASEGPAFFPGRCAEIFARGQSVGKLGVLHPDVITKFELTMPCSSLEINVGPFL

[2] = molecular target: Proto-oncogene tyrosine-protein kinase Src (Homo sapiens, UniProt P12931)
[3] = molecular target: Ras-related protein Rab-6A (Homo sapiens, UniProt P20340)
[4] = molecular target: T2, Serine/threonine-protein kinase TAO3 (Homo sapiens, UniProt Q9H2K8)
T2 sequence (Q9H2K8 whole entry): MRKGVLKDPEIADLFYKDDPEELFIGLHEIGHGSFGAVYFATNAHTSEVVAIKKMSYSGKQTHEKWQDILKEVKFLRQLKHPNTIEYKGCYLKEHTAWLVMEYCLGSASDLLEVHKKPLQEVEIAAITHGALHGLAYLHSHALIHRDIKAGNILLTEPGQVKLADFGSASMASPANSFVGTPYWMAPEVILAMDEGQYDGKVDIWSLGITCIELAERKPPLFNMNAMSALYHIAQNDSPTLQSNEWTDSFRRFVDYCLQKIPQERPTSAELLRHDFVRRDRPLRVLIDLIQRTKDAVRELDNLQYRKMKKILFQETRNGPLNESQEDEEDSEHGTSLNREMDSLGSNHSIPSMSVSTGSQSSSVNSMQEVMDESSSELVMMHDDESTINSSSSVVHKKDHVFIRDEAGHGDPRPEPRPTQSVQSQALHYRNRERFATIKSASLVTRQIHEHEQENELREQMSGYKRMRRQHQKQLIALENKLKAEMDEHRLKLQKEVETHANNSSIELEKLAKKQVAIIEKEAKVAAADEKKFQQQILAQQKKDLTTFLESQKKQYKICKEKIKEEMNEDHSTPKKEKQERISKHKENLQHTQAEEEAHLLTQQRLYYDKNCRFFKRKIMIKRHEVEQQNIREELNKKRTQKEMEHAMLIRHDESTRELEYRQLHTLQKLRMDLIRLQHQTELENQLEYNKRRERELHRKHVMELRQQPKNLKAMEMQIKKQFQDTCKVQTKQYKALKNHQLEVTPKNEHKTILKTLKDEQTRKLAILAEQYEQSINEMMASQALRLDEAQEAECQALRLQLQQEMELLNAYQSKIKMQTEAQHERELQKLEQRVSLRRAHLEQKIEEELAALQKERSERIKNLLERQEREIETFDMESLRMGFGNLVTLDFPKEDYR

[5] = molecular target: Cyclin-dependent kinase 13 (Homo sapiens, UniProt Q14004)
Wee1-like protein kinase = Wee1-like protein kinase (Homo sapiens, UniProt P30291)
[6] = molecular target: Ribosomal protein S6 kinase alpha-6 (Homo sapiens, UniProt Q9UK32)
[7] = molecular target: T3, Exosome RNA helicase MTR4 (Homo sapiens, UniProt P42285)
T3 sequence (P42285 whole entry): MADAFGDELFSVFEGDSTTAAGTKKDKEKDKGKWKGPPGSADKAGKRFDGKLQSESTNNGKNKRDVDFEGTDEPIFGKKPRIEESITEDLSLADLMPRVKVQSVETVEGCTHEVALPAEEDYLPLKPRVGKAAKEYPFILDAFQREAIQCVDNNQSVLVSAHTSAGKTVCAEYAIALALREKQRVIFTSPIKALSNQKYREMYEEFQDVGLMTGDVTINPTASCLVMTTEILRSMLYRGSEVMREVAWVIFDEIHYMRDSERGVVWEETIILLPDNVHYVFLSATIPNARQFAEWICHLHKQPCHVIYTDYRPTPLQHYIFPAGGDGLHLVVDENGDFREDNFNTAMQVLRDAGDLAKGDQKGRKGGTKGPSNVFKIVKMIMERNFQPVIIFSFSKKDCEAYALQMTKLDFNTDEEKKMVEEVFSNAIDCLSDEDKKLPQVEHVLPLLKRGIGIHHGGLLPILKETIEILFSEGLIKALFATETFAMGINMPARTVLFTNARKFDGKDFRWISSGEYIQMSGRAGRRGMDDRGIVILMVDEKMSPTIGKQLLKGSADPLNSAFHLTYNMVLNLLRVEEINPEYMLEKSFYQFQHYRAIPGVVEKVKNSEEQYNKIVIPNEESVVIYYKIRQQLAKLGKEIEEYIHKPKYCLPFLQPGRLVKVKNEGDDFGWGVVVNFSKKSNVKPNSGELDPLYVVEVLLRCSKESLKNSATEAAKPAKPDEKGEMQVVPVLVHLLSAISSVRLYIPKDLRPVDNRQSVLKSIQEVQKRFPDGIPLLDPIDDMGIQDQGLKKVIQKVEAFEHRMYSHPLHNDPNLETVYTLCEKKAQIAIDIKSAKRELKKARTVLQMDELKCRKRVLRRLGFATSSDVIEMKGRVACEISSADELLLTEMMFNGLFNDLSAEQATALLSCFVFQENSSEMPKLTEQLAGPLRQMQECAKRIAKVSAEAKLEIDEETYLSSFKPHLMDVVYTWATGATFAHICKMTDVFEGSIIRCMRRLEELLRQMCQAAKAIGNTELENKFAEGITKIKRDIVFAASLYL

[8] = molecular target: Protein kinase C alpha type (Homo sapiens, UniProt P17252)
Adenosine kinase = Adenosine kinase (Homo sapiens, UniProt P55263)
[9] = molecular target: RAC-gamma serine/threonine-protein kinase (Homo sapiens, UniProt Q9Y243)
Also: in the data inactive means no Kd found up to 30 µM.

Sequence of Cyclin-dependent kinase 13 (Q14004 whole entry): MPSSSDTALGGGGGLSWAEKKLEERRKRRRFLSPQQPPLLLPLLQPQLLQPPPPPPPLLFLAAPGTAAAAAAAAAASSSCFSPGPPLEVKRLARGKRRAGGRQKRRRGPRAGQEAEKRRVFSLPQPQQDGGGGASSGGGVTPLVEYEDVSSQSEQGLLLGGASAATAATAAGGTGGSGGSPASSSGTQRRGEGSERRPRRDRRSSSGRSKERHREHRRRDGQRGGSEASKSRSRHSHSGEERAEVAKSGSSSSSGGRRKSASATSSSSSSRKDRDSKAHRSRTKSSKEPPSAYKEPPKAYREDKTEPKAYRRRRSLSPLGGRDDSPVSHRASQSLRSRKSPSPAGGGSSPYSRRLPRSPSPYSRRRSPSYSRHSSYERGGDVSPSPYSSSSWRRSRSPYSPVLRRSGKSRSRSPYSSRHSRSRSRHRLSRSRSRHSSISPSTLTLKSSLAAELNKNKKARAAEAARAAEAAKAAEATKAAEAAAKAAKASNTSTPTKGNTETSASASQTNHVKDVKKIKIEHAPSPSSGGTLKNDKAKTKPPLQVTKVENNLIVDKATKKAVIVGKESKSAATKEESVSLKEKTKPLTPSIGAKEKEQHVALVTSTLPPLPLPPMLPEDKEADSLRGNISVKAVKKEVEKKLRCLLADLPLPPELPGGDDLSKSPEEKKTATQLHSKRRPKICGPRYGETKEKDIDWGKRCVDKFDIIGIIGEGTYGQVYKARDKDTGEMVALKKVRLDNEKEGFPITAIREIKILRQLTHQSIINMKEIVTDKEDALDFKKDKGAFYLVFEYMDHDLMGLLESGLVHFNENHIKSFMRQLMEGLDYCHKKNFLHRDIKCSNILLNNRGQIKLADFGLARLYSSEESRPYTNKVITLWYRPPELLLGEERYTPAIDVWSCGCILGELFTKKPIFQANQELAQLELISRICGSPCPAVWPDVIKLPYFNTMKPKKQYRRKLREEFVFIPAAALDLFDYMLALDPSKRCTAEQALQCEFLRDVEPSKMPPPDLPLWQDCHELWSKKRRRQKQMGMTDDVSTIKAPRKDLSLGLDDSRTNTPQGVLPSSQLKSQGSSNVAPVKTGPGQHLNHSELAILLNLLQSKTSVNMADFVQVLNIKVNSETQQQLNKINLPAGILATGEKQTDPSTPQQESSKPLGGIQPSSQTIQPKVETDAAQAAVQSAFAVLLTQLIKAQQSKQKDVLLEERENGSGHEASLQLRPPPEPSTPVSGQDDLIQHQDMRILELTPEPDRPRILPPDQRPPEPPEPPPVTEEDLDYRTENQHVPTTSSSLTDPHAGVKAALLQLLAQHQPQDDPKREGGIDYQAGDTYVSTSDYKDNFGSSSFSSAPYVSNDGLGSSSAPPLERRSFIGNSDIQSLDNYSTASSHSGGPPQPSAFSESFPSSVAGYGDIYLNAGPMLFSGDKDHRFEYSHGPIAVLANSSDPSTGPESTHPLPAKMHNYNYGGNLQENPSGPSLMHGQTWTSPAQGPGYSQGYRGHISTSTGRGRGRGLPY
Sequence of Adenosine kinase (P55263 whole entry): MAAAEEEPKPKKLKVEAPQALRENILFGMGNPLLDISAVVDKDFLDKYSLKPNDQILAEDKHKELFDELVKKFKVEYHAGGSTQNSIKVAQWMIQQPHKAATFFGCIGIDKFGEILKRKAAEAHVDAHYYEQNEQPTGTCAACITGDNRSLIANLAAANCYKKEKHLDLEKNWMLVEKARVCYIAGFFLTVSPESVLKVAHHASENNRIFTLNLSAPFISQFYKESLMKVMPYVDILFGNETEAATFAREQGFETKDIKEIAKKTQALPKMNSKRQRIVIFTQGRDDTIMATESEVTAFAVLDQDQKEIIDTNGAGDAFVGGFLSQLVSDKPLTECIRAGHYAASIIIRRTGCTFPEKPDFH
Sequence of Proto-oncogene tyrosine-protein kinase Src (P12931 2-536 limits assumed): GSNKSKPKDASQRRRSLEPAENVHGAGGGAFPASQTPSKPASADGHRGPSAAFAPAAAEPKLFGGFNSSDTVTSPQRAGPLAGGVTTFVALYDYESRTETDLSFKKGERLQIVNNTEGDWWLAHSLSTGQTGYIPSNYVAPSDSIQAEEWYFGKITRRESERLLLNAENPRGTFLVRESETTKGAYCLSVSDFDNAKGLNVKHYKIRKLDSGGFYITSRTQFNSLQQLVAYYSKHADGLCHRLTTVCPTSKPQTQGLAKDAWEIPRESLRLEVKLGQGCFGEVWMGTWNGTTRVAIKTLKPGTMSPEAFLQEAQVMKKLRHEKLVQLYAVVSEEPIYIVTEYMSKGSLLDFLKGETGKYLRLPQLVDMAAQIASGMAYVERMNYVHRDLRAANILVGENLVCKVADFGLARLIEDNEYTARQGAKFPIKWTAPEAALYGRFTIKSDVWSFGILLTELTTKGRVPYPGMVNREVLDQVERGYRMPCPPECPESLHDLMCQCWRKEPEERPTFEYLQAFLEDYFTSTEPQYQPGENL
Sequence of Ras-related protein Rab-6A (P20340 whole entry): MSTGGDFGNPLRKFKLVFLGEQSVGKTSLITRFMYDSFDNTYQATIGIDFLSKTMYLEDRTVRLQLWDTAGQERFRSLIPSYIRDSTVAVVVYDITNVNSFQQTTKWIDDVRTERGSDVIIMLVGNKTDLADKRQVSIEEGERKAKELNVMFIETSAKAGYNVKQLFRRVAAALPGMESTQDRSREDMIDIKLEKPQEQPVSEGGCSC
Sequence of Ribosomal protein S6 kinase alpha-6 (Q9UK32 whole entry): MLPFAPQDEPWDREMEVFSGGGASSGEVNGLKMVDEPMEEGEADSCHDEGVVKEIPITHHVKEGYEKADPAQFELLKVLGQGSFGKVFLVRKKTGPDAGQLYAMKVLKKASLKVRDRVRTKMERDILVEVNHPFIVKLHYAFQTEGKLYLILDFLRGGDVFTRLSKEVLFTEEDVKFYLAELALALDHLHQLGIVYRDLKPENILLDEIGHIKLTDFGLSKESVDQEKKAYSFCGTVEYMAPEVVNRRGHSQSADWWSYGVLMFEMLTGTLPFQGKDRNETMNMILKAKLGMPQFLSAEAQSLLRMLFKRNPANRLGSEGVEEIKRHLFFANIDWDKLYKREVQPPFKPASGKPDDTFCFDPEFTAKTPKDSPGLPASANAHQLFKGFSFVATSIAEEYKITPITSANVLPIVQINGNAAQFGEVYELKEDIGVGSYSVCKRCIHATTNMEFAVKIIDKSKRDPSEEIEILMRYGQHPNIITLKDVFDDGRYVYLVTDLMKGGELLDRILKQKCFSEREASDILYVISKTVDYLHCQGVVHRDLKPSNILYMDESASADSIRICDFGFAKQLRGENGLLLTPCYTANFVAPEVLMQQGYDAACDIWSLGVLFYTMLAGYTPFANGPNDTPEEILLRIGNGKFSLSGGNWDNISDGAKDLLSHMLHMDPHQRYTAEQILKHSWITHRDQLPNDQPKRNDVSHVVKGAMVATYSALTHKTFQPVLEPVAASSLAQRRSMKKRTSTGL
Sequence of Wee1-like protein kinase (P30291 whole entry): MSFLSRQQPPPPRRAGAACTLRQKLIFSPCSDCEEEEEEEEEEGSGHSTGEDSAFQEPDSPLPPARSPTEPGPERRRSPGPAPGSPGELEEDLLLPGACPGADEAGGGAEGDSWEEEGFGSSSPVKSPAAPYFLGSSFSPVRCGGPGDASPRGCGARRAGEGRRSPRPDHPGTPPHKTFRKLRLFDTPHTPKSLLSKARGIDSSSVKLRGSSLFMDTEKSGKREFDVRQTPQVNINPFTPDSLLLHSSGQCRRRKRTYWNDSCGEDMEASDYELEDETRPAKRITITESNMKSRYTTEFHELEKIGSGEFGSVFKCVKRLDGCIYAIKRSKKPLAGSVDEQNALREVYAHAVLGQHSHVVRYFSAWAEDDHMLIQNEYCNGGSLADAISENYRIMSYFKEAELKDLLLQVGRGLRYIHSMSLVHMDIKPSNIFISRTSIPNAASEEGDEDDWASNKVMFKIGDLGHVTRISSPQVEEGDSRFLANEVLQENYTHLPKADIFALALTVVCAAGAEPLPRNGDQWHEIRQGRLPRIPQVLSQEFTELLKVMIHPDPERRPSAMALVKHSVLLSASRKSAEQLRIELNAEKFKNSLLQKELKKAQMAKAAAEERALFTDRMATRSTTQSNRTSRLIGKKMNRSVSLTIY

Row | Kd [1] | Kd [2] | Kd [3] | Kd [4] | Kd [5] | Kd (Wee1-like protein kinase) | Kd [6] | Kd [7] | Kd [8] | Kd (Adenosine kinase) | Kd [9] | SMILES
1 | > 30 µM (inactive) | > 30 µM (inactive) | > 30 µM (inactive) | > 30 µM (inactive) | > 30 µM (inactive) | > 30 µM (inactive) | > 30 µM (inactive) | > 30 µM (inactive) | > 30 µM (inactive) |  |  | C[C@@H](Oc1cc(C(=O)Nc2ccc(C(=O)N3CCN(C)CC3)cc2)nnc1N)c1c(Cl)ccc(F)c1Cl
2 | > 30 µM (inactive) | > 30 µM (inactive) | > 30 µM (inactive) | 11.8 µM (active) | > 30 µM (inactive) | > 30 µM (inactive) | > 30 µM (inactive) | > 30 µM (inactive) | > 30 µM (inactive) | > 30 µM (inactive) |  | C[C@H]1CNCCCN1S(=O)(=O)c1cccc2cncc(F)c12
3 | > 30 µM (inactive) | 0.491 µM (active) | > 30 µM (inactive) | > 30 µM (inactive) | > 30 µM (inactive) | > 30 µM (inactive) | > 30 µM (inactive) | > 30 µM (inactive) | > 30 µM (inactive) | > 30 µM (inactive) |  | CCNC(=O)C#Cc1ccc2c(c1)NC(=O)/C2=C(\Nc1ccc(CN(C)C)cc1)c1ccccc1
4 | > 30 µM (inactive) | > 30 µM (inactive) | > 30 µM (inactive) | > 30 µM (inactive) | > 30 µM (inactive) | > 30 µM (inactive) | > 30 µM (inactive) | > 30 µM (inactive) | > 30 µM (inactive) | > 30 µM (inactive) |  | COc1cc(Nc2ncc3c(n2)-c2ccc(Cl)cc2C(c2c(F)cccc2OC)=NC3)ccc1C(=O)O [ALISERTIB]
5 | > 30 µM (inactive) |  | > 30 µM (inactive) | > 30 µM (inactive) |  | > 30 µM (inactive) |  | > 30 µM (inactive) |  | > 30 µM (inactive) | > 30 µM (inactive) | O=C(Nc1c[nH]nc1-c1nc2cc(CN3CCOCC3)ccc2[nH]1)NC1CC1 [AT-9283]
6 | > 30 µM (inactive) |  | > 30 µM (inactive) |  |  |  |  | > 30 µM (inactive) | > 30 µM (inactive) | > 30 µM (inactive) |  | CNC(=O)c1ccccc1Sc1ccc2c(/C=C/c3ccccn3)n[nH]c2c1 [AXITINIB]
7 | > 30 µM (inactive) |  | > 30 µM (inactive) |  |  |  |  | > 30 µM (inactive) | > 30 µM (inactive) | 2.51 µM (active) |  | C[C@@H](Oc1cc(-n2cnc3ccc(CN4CCN(C)CC4)cc32)sc1C(N)=O)c1ccccc1C(F)(F)F [GSK-461364]
8 | > 30 µM (inactive) | > 30 µM (inactive) |  | > 30 µM (inactive) | > 30 µM (inactive) | > 30 µM (inactive) | > 30 µM (inactive) | > 30 µM (inactive) | > 30 µM (inactive) | > 30 µM (inactive) |  | NC1(c2ccc(-c3nc4ccn5c(=O)[nH]nc5c4cc3-c3ccccc3)cc2)CCC1 [MK-2206]
9 | > 30 µM (inactive) |  |  | > 30 µM (inactive) | > 30 µM (inactive) | > 30 µM (inactive) | > 30 µM (inactive) | > 30 µM (inactive) | > 30 µM (inactive) | > 30 µM (inactive) |  | Cc1[nH]c(/C=C2\C(=O)Nc3ccccc32)c(C)c1CCC(=O)O [ORANTINIB]
10 | > 30 µM (inactive) |  | > 30 µM (inactive) |  |  | > 30 µM (inactive) | > 30 µM (inactive) | > 30 µM (inactive) | > 30 µM (inactive) | > 30 µM (inactive) |  | NC(=O)c1c(OCc2c(F)cc(Br)cc2F)nsc1NC(=O)NCCCCN1CCCC1 [OSI-632]
11 | > 30 µM (inactive) |  | > 30 µM (inactive) | 2.4 µM (active) | > 30 µM (inactive) | 1.59 µM (active) |  | > 30 µM (inactive) | > 30 µM (inactive) | > 30 µM (inactive) |  | CC(=O)NCC(=O)N1[C@@H]2CC[C@H]1c1ccc(Nc3ncc(C(F)(F)F)c(NC4CCC4)n3)cc12 [PF-03814735]
12 | > 30 µM (inactive) |  | > 30 µM (inactive) |  |  |  |  | > 30 µM (inactive) | > 30 µM (inactive) |  |  | O=C(NOCCO)c1cc(CN2OCCCC2=O)c(F)c(F)c1Nc1ccc(I)cc1F [RO-4987655]
13 | > 30 µM (inactive) |  |  |  |  |  |  | > 30 µM (inactive) | 16.5 µM (active) | > 30 µM (inactive) |  | N#CC[C@H](C1CCCC1)n1cc(-c2ncnc3[nH]ccc23)cn1 [RUXOLITINIB]
14 | > 30 µM (inactive) | > 30 µM (inactive) | > 30 µM (inactive) | > 30 µM (inactive) | > 30 µM (inactive) | > 30 µM (inactive) | > 30 µM (inactive) | > 30 µM (inactive) | 1.67 µM (active) | > 30 µM (inactive) |  | Cn1ncc(Cl)c1-c1cc(C(=O)N[C@H](CN)Cc2ccc(F)c(F)c2)oc1Cl [UPROSERTIB]

Row | SMILES | Kd [1] | Kd [2] | Kd [3] | Kd [4] | Kd [5] | Kd (Wee1-like protein kinase) | Kd [6] | Kd [7] | Kd [8] | Kd (Adenosine kinase) | Kd [9]
15 | CC(C)(C)c1nc(-c2cccc(NS(=O)(=O)c3c(F)cccc3F)c2F)c(-c2ccnc(N)n2)s1 [DABRAFENIB] | > 30 µM (inactive) | > 30 µM (inactive) | > 30 µM (inactive) | > 30 µM (inactive) | > 30 µM (inactive) | > 30 µM (inactive) | > 30 µM (inactive) | > 30 µM (inactive) | > 30 µM (inactive) | > 30 µM (inactive) | 
16 | Cn1cc(C2=C(c3cn(C4CCN(Cc5ccccn5)CC4)c4ccccc34)C(=O)NC2=O)c2ccccc21 [ENZASTAURIN] | > 30 µM (inactive) |  | > 30 µM (inactive) |  |  |  |  | > 30 µM (inactive) |  | > 30 µM (inactive) | 
17 | O=C(Nc1cc(C(F)(F)F)cc(C(F)(F)F)c1)c1cc(Cl)ccc1O [IMD-0354] | > 30 µM (inactive) | > 30 µM (inactive) | > 30 µM (inactive) | > 30 µM (inactive) | > 30 µM (inactive) | > 30 µM (inactive) | > 30 µM (inactive) | > 30 µM (inactive) | > 30 µM (inactive) | > 30 µM (inactive) | 
